{
  "source": "patent US10513519B2",
  "about": "“Solid forms of (1S,4S)-4-(2-(((3S,4R)-3-fluorotetrahydro-2H-pyran-4-yl)amino)-8-((2,4,6-trichlorophenyl)amino)-9H-purin-9-yl)-1-methylcyclohexane-1-carboxamide and methods of their use” (Signal Pharmaceuticals, LLC, priority 2016, dated 2019)",
  "tested_on": "64 cancer cell lines",
  "experiment": "Anti-proliferative activity across a panel of 64 cancer cell lines (CellTiter-Glo)",
  "format": "cell-based",
  "method": "Prior to testing, cells were grown and expanded in culture flasks to provide sufficient amounts of starting material. Cells were then diluted to the appropriate densities and added directly to the compound-spotted 384-well plates. Cells were allowed to grow for 72 h at 37° C./5% CO2. At the time when compound was added (to), initial cell number was assessed via a viability assay (Cell Titer-Glo) by quantifying the level of luminescence generated by ATP present in viable cells. After 72 h, cell viability of compound-treated cells was assessed via Cell Titer-Glo and luminescence measurement. The apoptotic response to Compound 1 was assessed by quantifying the activities of caspase 3 and caspase 7 (Caspase 3/7-Glo) in treated cells and DMSO control cells.\nCells were treated with DMSO or increasing concentrations of Compound 1 for 72 h. Proliferation was measured using CellTiter-Glo as described.",
  "key": {"[1]": {"details": "Homo sapiens, Malme-3M, 72 h, MALME-3M (Melanoma)"}, "[2]": {"details": "Homo sapiens, NCI-H23, 72 h, NCI-H23 (Lung)"}, "[3]": {"details": "Homo sapiens, NCI-H28, 72 h, NCI-H28 (Lung)"}, "[4]": {"details": "Homo sapiens, NCI-H226, 72 h, NCI-H226 (Lung)"}, "[5]": {"details": "Homo sapiens, NCI-H441, 72 h, NCI-H441 (Lung)"}, "[6]": {"details": "Homo sapiens, NCI-H460, 72 h, NCI-H460 (Lung)"}, "[7]": {"details": "Homo sapiens, NCI-H520, 72 h, NCI-H520 (Lung)"}, "[8]": {"details": "Homo sapiens, NCI-H838, 72 h, NCI-H838 (Lung)"}, "[9]": {"details": "Homo sapiens, NCI-H1299, 72 h, NCI-H1299 (Lung)"}, "[10]": {"details": "Homo sapiens, NCI-H1703, 72 h, NCI-H1703 (Lung)"}, "[11]": {"details": "Homo sapiens, NCI-H1755, 72 h, NCI-H1755 (Lung)"}, "[12]": {"details": "Homo sapiens, NCI-H1975, 72 h, NCI-H1975 (Lung)"}, "[13]": {"details": "Homo sapiens, NCI-H2122, 72 h, NCI-H2122 (Lung)"}, "[14]": {"details": "Homo sapiens, PANC-1, 72 h, PANC-1 (Pancreas)"}, "[15]": {"details": "Homo sapiens, PLC-PRF-5, 72 h, PLC-PRF-5 (Liver)"}, "[16]": {"details": "Homo sapiens, RPMI-8226, 72 h, RPMI-8226 (Multiple myeloma)"}, "[17]": {"details": "Homo sapiens, SK-HEP1, 72 h, SK-HEP-1 (Liver)"}, "[18]": {"details": "Homo sapiens, SNU-182, 72 h, SNU-182 (Liver)"}, "[19]": {"details": "Homo sapiens, SNU-387, 72 h, SNU-387 (Liver)"}, "[20]": {"details": "Homo sapiens, SNU-398, 72 h, SNU-398 (Liver)"}, "[21]": {"details": "Homo sapiens, SNU-423, 72 h, SNU-423 (Liver)"}, "[22]": {"details": "Homo sapiens, SNU-449, 72 h, SNU-449 (Liver)"}, "[23]": {"details": "Homo sapiens, SNU-475, 72 h, SNU-475 (Liver)"}, "[24]": {"details": "Homo sapiens, SW48, 72 h, SW48 (Colon)"}, "[25]": {"details": "Homo sapiens, SW900, 72 h, SW900 (Lung)"}, "[26]": {"details": "Homo sapiens, SW1417, 72 h, SW1417 (Colon)"}, "[27]": {"details": "Homo sapiens, SW-620, 72 h, SW620 (Colon)"}, "[28]": {"details": "Mel202, 72 h, MEL-202 (Melanoma)"}},
  "data": [
    {"smiles": "C[C@]1(C(N)=O)CC[C@@H](n2c(Nc3c(Cl)cc(Cl)cc3Cl)nc3cnc(N[C@@H]4CCOC[C@H]4F)nc32)CC1", "note": "[Compound 1, cis-4-[2-{[(3S,4R)-3-fluorooxan-4-yl]amino}-8-(2,4,6-trichloroanilino)-9H-purin-9-yl]-1-methylcyclohexane-1-carboxamide]", "values": [
      {"measurement": "GI50", "setting": "[1]", "result": 1.1, "unit": "nM"},
      {"measurement": "IC50", "setting": "[1]", "result": 3.8, "unit": "nM"},
      {"measurement": "GI50", "setting": "[2]", "result": 36.4, "unit": "nM"},
      {"measurement": "IC50", "setting": "[2]", "result": 182, "unit": "nM"},
      {"measurement": "GI50", "setting": "[3]", "result": 1280, "unit": "nM"},
      {"measurement": "IC50", "setting": "[3]", "result": 2360, "unit": "nM"},
      {"measurement": "GI50", "setting": "[4]", "result": 1630, "unit": "nM"},
      {"measurement": "IC50", "setting": "[4]", "result": 6150, "unit": "nM"},
      {"measurement": "GI50", "setting": "[5]", "result": 184, "unit": "nM"},
      {"measurement": "IC50", "setting": "[5]", "result": 6350, "unit": "nM"},
      {"measurement": "GI50", "setting": "[6]", "result": 244, "unit": "nM"},
      {"measurement": "IC50", "setting": "[6]", "result": 644, "unit": "nM"},
      {"measurement": "GI50", "setting": "[7]", "result": 5240, "unit": "nM"},
      {"measurement": "IC50", "setting": "[7]", "result": 8370, "unit": "nM"},
      {"measurement": "GI50", "setting": "[8]", "result": 567, "unit": "nM"},
      {"measurement": "IC50", "setting": "[8]", "result": 9180, "unit": "nM"},
      {"measurement": "GI50", "setting": "[9]", "result": 234, "unit": "nM"},
      {"measurement": "IC50", "setting": "[9]", "result": 498, "unit": "nM"},
      {"measurement": "GI50", "setting": "[10]", "result": 1350, "unit": "nM"},
      {"measurement": "IC50", "setting": "[10]", "result": 1680, "unit": "nM"},
      {"measurement": "GI50", "setting": "[11]", "result": 40.4, "unit": "nM"},
      {"measurement": "IC50", "setting": "[11]", "result": 58.4, "unit": "nM"},
      {"measurement": "GI50", "setting": "[12]", "result": 2050, "unit": "nM"},
      {"measurement": "IC50", "setting": "[12]", "result": 3190, "unit": "nM"},
      {"measurement": "GI50", "setting": "[13]", "result": 31.8, "unit": "nM"},
      {"measurement": "IC50", "setting": "[13]", "result": 42.7, "unit": "nM"},
      {"measurement": "GI50", "setting": "[14]", "result": 5440, "unit": "nM"},
      {"measurement": "IC50", "setting": "[14]", "result": 10000, "unit": "nM"},
      {"measurement": "GI50", "setting": "[15]", "result": 888, "unit": "nM"},
      {"measurement": "IC50", "setting": "[15]", "result": 4010, "unit": "nM"},
      {"measurement": "GI50", "setting": "[16]", "result": 3240, "unit": "nM"},
      {"measurement": "IC50", "setting": "[16]", "result": 9740, "unit": "nM"},
      {"measurement": "GI50", "setting": "[17]", "result": 7040, "unit": "nM"},
      {"measurement": "IC50", "setting": "[17]", "result": 10000, "unit": "nM"},
      {"measurement": "GI50", "setting": "[18]", "result": 76.4, "unit": "nM"},
      {"measurement": "IC50", "setting": "[18]", "result": 4980, "unit": "nM"},
      {"measurement": "GI50", "setting": "[19]", "result": 33.2, "unit": "nM"},
      {"measurement": "IC50", "setting": "[19]", "result": 104, "unit": "nM"},
      {"measurement": "GI50", "setting": "[20]", "result": 265, "unit": "nM"},
      {"measurement": "IC50", "setting": "[20]", "result": 1970, "unit": "nM"},
      {"measurement": "GI50", "setting": "[21]", "result": 6240, "unit": "nM"},
      {"measurement": "IC50", "setting": "[21]", "result": 10000, "unit": "nM"},
      {"measurement": "GI50", "setting": "[22]", "result": 10000, "unit": "nM"},
      {"measurement": "IC50", "setting": "[22]", "result": 10000, "unit": "nM"},
      {"measurement": "GI50", "setting": "[23]", "result": 9990, "unit": "nM"},
      {"measurement": "IC50", "setting": "[23]", "result": 10000, "unit": "nM"},
      {"measurement": "GI50", "setting": "[24]", "result": 5.7, "unit": "nM"},
      {"measurement": "IC50", "setting": "[24]", "result": 88, "unit": "nM"},
      {"measurement": "GI50", "setting": "[25]", "result": 4.8, "unit": "nM"},
      {"measurement": "IC50", "setting": "[25]", "result": 21.7, "unit": "nM"},
      {"measurement": "GI50", "setting": "[26]", "result": 0.5, "unit": "nM"},
      {"measurement": "IC50", "setting": "[26]", "result": 16.9, "unit": "nM"},
      {"measurement": "GI50", "setting": "[27]", "result": 47, "unit": "nM"},
      {"measurement": "IC50", "setting": "[27]", "result": 92, "unit": "nM"},
      {"measurement": "GI50", "setting": "JHH1, 72 h, JHH-1 (Liver)", "result": 1.6, "unit": "nM"},
      {"measurement": "IC50", "setting": "JHH1, 72 h, JHH-1 (Liver)", "result": 94.6, "unit": "nM"},
      {"measurement": "GI50", "setting": "JHH7, 72 h, JHH-7 (Liver)", "result": 83.4, "unit": "nM"},
      {"measurement": "IC50", "setting": "JHH7, 72 h, JHH-7 (Liver)", "result": 548, "unit": "nM"},
      {"measurement": "GI50", "setting": "JHH-2, 72 h, JHH-2 (Liver)", "result": 129, "unit": "nM"},
      {"measurement": "IC50", "setting": "JHH-2, 72 h, JHH-2 (Liver)", "result": 4480, "unit": "nM"},
      {"measurement": "GI50", "setting": "JHH-4, 72 h, JHH-4 (Liver)", "result": 363, "unit": "nM"},
      {"measurement": "IC50", "setting": "JHH-4, 72 h, JHH-4 (Liver)", "result": 2320, "unit": "nM"},
      {"measurement": "GI50", "setting": "[28]", "result": 38.5, "unit": "nM"},
      {"measurement": "IC50", "setting": "[28]", "result": 96.8, "unit": "nM"}
    ]}
  ]
}
